Patent US8575158B2, “1-phenyl-substituted heterocyclyl derivatives and their use as prostaglandin D2 receptor modulators” (Actelion Pharmaceuticals Ltd., priority 2010, dated 2013)
pIC50: −log10 of the molar value.

Biological target: T1, hCRTH2 receptor (Homo sapiens, UniProt Q9Y5Y4)
T1 construct: expressed in transfected cells; host or cells: HEK293
T1 sequence (Q9Y5Y4 1-395): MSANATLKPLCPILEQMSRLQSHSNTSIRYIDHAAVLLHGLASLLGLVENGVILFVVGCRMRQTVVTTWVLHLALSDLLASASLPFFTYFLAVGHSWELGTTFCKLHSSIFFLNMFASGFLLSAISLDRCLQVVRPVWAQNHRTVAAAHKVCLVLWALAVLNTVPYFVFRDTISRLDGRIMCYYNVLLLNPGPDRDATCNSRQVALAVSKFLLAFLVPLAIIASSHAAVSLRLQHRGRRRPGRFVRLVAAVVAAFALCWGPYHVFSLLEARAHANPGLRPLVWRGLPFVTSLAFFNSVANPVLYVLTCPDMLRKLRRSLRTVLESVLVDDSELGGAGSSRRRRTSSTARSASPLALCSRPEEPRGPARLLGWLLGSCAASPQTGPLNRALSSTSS
Assay: Radioligand displacement assay (3H-PGD2) on hCRTH2 receptor membranes
Type: binding
Details: antagonistic activity
Procedure: First, recombinant HEK293-hCRTH2 cells were detached from culture plates into 5 ml buffer A/plate (Buffer A: 5 mM Tris, 1 mM MgCl2-6H2O pH=7.4) using a rubber policeman. Cells were then transferred into centrifugation tubes and centrifuged for 5 min at 400 g. The cell pellet was resuspended in the same buffer and tubes were frozen at −80° C. Cells were thawed and membrane fragments were generated by homogenization using a polytron homogenizer (30 seconds). The membrane fragments were then centrifuged at 3000 g for 20 minutes and resuspended in buffer C (Buffer C: 75 mM Tris, 25 mM MgCl2, 250 mM Saccharose pH 7.4). Aliquots of membrane fragments were stored at −20° C.
Binding assay was performed in a final assay volume of 250 μl. First, 25 μl of test compound, previously diluted in Binding-Buffer (Binding-Buffer: 50 mM Tris-Base, 100 mM NaCl, 1 mM EDTA, 0.1% BSA (protease free), 0.01% NaN3, 10 mM MnCl2, pH 7.0) was placed into each well. After addition of 75 μl Binding-Buffer, 50 μl of the radioligand ^3H-PGD2 (at 2.5 nM (220.000 dpm/well) from ANAWA ART0662) was added to each well. Binding assay was started by addition of 100 μl CRTH2 membrane fragments, reaching a final concentration of 20 μg/well. For non-specific binding, PGD2 was added to the reaction mixture to […] final concentration.
This assay mix was incubated for 90 minutes at room temperature and then filtered through a GF/C filter 96-well plate which was pre-soaked for 3 hours in 0.5% polyethyleneimine (PEI). The filter-wells were washed three times with ice cold Binding-Buffer. Then, 40 μl of Microscint-40 (Packard) was added to each well and the retained radioactivity quantified in a Topcount (Packard).

[1] = 3H-PGD2 radioligand displacement, HEK293-hCRTH2 membranes
[2] = 3H-PGD2 displacement on HEK293-hCRTH2 membrane fragments

| SMILES | pIC50 [1] | pIC50 [2] |
| --- | --- | --- |
| COc1ccc(OCC(=O)N2CCc3ccccc3C2c2cc(Cl)ccc2OCC(=O)O)cc1 (racemic) [Example 415] | 6.68 |  |
| O=C(O)CCCOc1ccc(F)cc1C1c2ccccc2CCN1C(=O)OCc1ccccc1 (racemic) [Example 217, (±)-1-[2-(3-Carboxy-propoxy)-5-fluoro-phenyl]-3,4-dihydro-1H-isoquinoline-2-carboxylic acid benzyl ester] |  | 6.96 |
| O=C(O)COc1ccc(Cl)cc1C1c2ccccc2CCN1C(=O)CCn1c(C(F)(F)F)cc2ccccc21 (racemic) [Example 405] | 6.35 |  |
| O=C(O)COc1ccc(Cl)cc1[C@@H]1c2ccccc2CCN1C(=O)OCc1nccs1 [Example 273, (S)-1-(2-Carboxymethoxy-5-chloro-phenyl)-3,4-dihydro-1H-isoquinoline-2-carboxylic acid thiazol-2-ylmethyl ester] |  | 8.69 |
| Cc1ccccc1CCC(=O)N1CCc2cc(F)ccc2C1c1cc(Cl)ccc1OCC(=O)O (racemic) [Example 435] | 7.33 |  |
| O=C(O)COc1ccc(F)cc1C1c2ccccc2CCN1C(=O)COCc1ccccc1 (racemic) [Example 126, (±)-{2-[2-(2-Benzyloxy-acetyl)-1,2,3,4-tetrahydro-isoquinolin-1-yl]-4-fluoro-phenoxy}-acetic acid] |  | 7.70 |
| O=C(O)COc1ccc(Cl)cc1[C@@H]1c2cccc(F)c2CCN1C(=O)OCc1ccccc1F [Example 359, (S)-1-(2-Carboxymethoxy-5-chloro-phenyl)-5-fluoro-3,4-dihydro-1H-isoquinoline-2-carboxylic acid 2-fluoro-benzyl ester] | 8.75 |  |
| Cc1ccccc1C1CC1C(=O)N1CCc2ccccc2C1c1cc(Cl)ccc1OCC(=O)O (single isomer, unassigned) [Example 154, (±)-{4-Chloro-2-[2-((trans)-2-o-tolyl-cyclopropanecarbonyl)-1,2,3,4-tetrahydro-isoquinolin-1-yl]-phenoxy}-acetic acid (diastereosiomer 2)] |  | 8.32 |
| COc1ccc(OCC(=O)N2CCc3ccccc3C2c2cc(Cl)ccc2OCC(=O)O)c(OC)n1 (racemic) [Example 476] | 6.79 |  |
| COc1cc2c(cc1OC)C(c1cc(F)ccc1OCC(=O)O)N(C(=O)OCc1ccccc1)CC2 (racemic) [Example 36, (±)-1-(2-Carboxymethoxy-5-fluoro-phenyl)-6,7-dimethoxy-3,4-dihydro-1H-isoquinoline-2-carboxylic acid benzyl ester] |  | 7.24 |
| O=C(O)COc1ccc(Cl)cc1C1c2cc(F)ccc2CCN1C(=O)OCc1ccccc1 (racemic) [Example 365] | 7.42 |  |
| COCCC(=O)N1CCc2ccccc2C1c1cc(Cl)ccc1OCC(=O)O (racemic) [Example 70, (±)-{4-Chloro-2-[2-(3-methoxy-propionyl)-1,2,3,4-tetrahydro-isoquinolin-1-yl]-phenoxy}-acetic acid] |  | 6.86 |
| O=C(O)COc1ccc(Cl)cc1C1c2ccccc2CCN1C(=O)CCCc1cccc(Cl)c1 (racemic) [Example 112, (±)-(4-Chloro-2-{2-[4-(3-chloro-phenyl)-butyryl]-1,2,3,4-tetrahydro-isoquinolin-1-yl}-phenoxy)-acetic acid] |  | 7.63 |
| O=C(O)COc1ccc(Cl)cc1[C@@H]1c2ccc(F)cc2CCN1C(=O)OCc1cnccn1 [Example 332, (S)-1-(2-Carboxymethoxy-5-chloro-phenyl)-6-fluoro-3,4-dihydro-1H-isoquinoline-2-carboxylic acid pyrazin-2-ylmethyl ester] | 8.12 |  |
| O=C(O)COc1ccc(Cl)cc1C1c2ccccc2CCN1C(=O)COc1cncc(Cl)c1 (racemic) [Example 470] | 6.82 |  |
| O=C(O)COc1ccc(Cl)cc1[C@@H]1c2ccc(F)cc2CCN1C(=O)CCn1ncc2ccc(F)cc21 [Example 398] | 7.19 |  |
| Cc1ncc(COC(=O)N2CCc3c(ccc(F)c3F)[C@H]2c2cc(Cl)ccc2OCC(=O)O)s1 [Example 303, (S)-1-(2-Carboxymethoxy-5-chloro-phenyl)-5,6-difluoro-3,4-dihydro-1H-isoquinoline-2-carboxylic acid 2-methyl-thiazol-5-ylmethyl ester] | 8.30 |  |
| CCn1nc(C)cc1CCOC(=O)N1CCc2c(ccc(F)c2F)[C@H]1c1cc(Cl)ccc1OCC(=O)O [Example 314, (S)-1-(2-Carboxymethoxy-5-chloro-phenyl)-5,6-difluoro-3,4-dihydro-1H-isoquinoline-2-carboxylic acid 2-(2-ethyl-5-methyl-2H-pyrazol-3-yl)-ethyl ester] | 8.01 |  |

| SMILES | pIC50 [1] | pIC50 [2] |
| --- | --- | --- |
| O=C(O)COc1ccc(Cl)cc1C1c2ccccc2CCN1C(=O)CCCc1ccccc1 (racemic) [Example 107, (±)-{4-Chloro-2-[2-(4-phenyl-butyryl)-1,2,3,4-tetrahydro-isoquinolin-1-yl]-phenoxy}-acetic acid] |  | 7.69 |
| Cn1nccc1COC(=O)N1CCc2c(ccc(F)c2F)[C@H]1c1cc(Cl)ccc1OCC(=O)O [Example 312, (S)-1-(2-Carboxymethoxy-5-chloro-phenyl)-5,6-difluoro-3,4-dihydro-1H-isoquinoline-2-carboxylic acid 2-methyl-2H-pyrazol-3-ylmethyl ester] | 8.33 |  |
| O=C(O)COc1ccc(Cl)cc1C1c2ccccc2CCN1C(=O)OCc1c(F)cccc1Cl (racemic) [Example 252] |  | 8.40 |
| O=C(O)COc1ccc(Cl)cc1[C@@H]1c2ccc(F)cc2CCN1C(=O)CCn1ncc2c(Cl)cccc21 [Example 402] | 6.77 |  |
| O=C(O)COc1ccc(F)cc1C1c2ccccc2CCN1C(=O)COCc1ccccc1Cl (racemic) [Example 150] |  | 8.21 |
| Cc1nn(CCC(=O)N2Cc3ccccc3C2c2cc(Cl)ccc2OCC(=O)O)c2cccc(Cl)c12 (single isomer, unassigned) [Example 529] | 7.11 |  |
| O=C(O)COc1ccc(F)cc1C1c2ccccc2CCN1C(=O)CNS(=O)(=O)c1ccccc1 (racemic) [Example 205] |  | 6.03 |
| Cc1nn(CCC(=O)N2Cc3ccccc3C2c2cc(Cl)ccc2OCC(=O)O)c2ccccc12 (single isomer, unassigned) [Example 545, (4-Chloro-2-{2-[3-(3-methyl-indazol-1-yl)-propionyl]-2,3-dihydro-1H-isoindol-1-yl}-phenoxy)-acetic acid] | 6.01 |  |
| O=C(O)COc1ccc(Cl)cc1[C@@H]1c2ccc(F)cc2CCN1C(=O)CCn1ncc2cccc(F)c21 [Example 403] | 7.10 |  |
| Cc1cnn(COC(=O)N2CCc3c(ccc(F)c3F)[C@H]2c2cc(Cl)ccc2OCC(=O)O)c1 [Example 317, (S)-1-(2-Carboxymethoxy-5-chloro-phenyl)-5,6-difluoro-3,4-dihydro-1H-isoquinoline-2-carboxylic acid 4-methyl-pyrazol-1-ylmethyl ester] | 7.83 |  |
| O=C(O)COc1ccc(Cl)cc1C1c2ccccc2CCN1C(=O)[C@@H]1C[C@H]1c1cccc(C(F)(F)F)c1 (mixture of isomers) [Example 426] | 7.03 |  |
| COc1cccc2c1ccn2CCC(=O)N1CCc2ccccc2C1c1cc(Cl)ccc1OCC(=O)O (racemic) [Example 382] | 7.68 |  |
| CN(C)S(=O)(=O)c1ccc(OCC(=O)O)c(C2c3ccccc3CCN2C(=O)OCc2ccccc2)c1 (racemic) [Example 17, (±)-1-(2-Carboxymethoxy-5-dimethylsulfamoyl-phenyl)-3,4-dihydro-1H-isoquinoline-2-carboxylic acid benzyl ester] |  | 6.05 |
| O=C(O)COc1ccc(Cl)cc1C1c2ccccc2CCN1C(=O)CCN1Cc2ccccc2C1=O (racemic) [Example 445] | 6.89 |  |
| Cn1cc(CCC(=O)N2CCc3ccccc3C2c2cc(F)ccc2OCC(=O)O)c2ccccc21 (racemic) [Example 66, (±)-(4-Fluoro-2-{2-[3-(1-methyl-1H-indol-3-yl)-propionyl]-1,2,3,4-tetrahydro-isoquinolin-1-yl}-phenoxy)-acetic acid] |  | 7.56 |
| Cc1cc(C)c(COC(=O)N2CCc3ccccc3C2c2cc(Cl)ccc2OCC(=O)O)c(C)c1 (racemic) [Example 251] |  | 7.91 |
| O=C(O)COc1ccc(Cl)cc1C1c2ccccc2CCN1C(=O)OCc1ccccc1F (racemic) [Example 234] |  | 8.44 |
| O=C(O)COc1ccc(Cl)cc1C1c2ccccc2CCN1C(=O)OCc1ccc(C(F)(F)F)cc1 (racemic) [Example 363] | 7.47 |  |
